In patent publication US20250011878A1, “METHOD TO DETECT RNA BIOMARKERS” (ITALFARMACO SPA, priority 2021, published 2025):

Experiments:
[1] = test system: human monocytes; assay: RNAseq gene expression in purified human monocytes treated with ITF3756 and/or TNF-α; type: cell-based
Text: PBMCs used for the experiments were obtained from Buffy Coats of healthy donors (all samples tested negative for transmissible diseases as required for blood transfusion) separated over a Ficoll-Hypaque gradient (Biochrom). Monocytes were purified by negative selection from 100×10^6 PBMC using Pan Monocytes Isolation Kit (Milteny) following manufacturer's instructions. By Pan Monocyte Isolation kit untouched monocytes are isolated from human PBMCs and the simultaneous enrichment of classical (CD14^++CD16^−), non classical (CD14^+CD16^++) and intermediate (CD14^++CD16^+) monocytes is achieved. Non-monocytes, such as T cells, NK cells, B cells, dendritic cells, and basophils are indirectly magnetically labeled using a cocktail of biotin-conjugated antibodies and anti-Biotin MicroBeads. Briefly, 400 μL of Buffer (PBS 1×, 0.5% BSA and 2 mM EDTA), 100 μL of FcR Blocking Reagent and 100 μL of Biotin-Antibody Cocktail were added to PBMC, previously washed with PBS by centrifugation 300×g for 5 minutes, mixed and incubate for 5 minutes in the refrigerator (2-8° C.). After incubation, 300 μL of Buffer and 200 μL of anti-biotin microbeads were added to the cells, mixed and incubate further for 10 minutes in the refrigerator. After incubation cells were processed by subsequent magnetic cell separation. Cell suspension was applied onto the column and the flow-through containing unlabeled cells, representing the enriched monocytes, was collected. Purified monocytes were washed with Buffer by centrifugation 300×g for 5 minutes and counted in PBS. Purified monocytes (1,0×10^6/ml) were pre-treated for 2 h with ITF3756 1 μM or DMSO (0.005%) in 12-well plates in 1 ml final volume of complete medium (RPMI (Biochrom), FCS 10% and penicillin/streptomycin 1× (Sigma)). The cells were then stimulated or not with TNF-α (100 ng/mL, Peprotech) for 4h. After incubation with ITF3756 and TNF-α, the cells were collected, washed with PBS by centrifugation 300×g for 5 minutes and stored at −80° C. Samples were thawed on the bench for 2 minutes and total RNA was extracted with Trizol reagent (Thermo Fisher Scientific), following manufacturer's instructions. Briefly, Trizol reagent (0.75 ml Trizol per 5-10×10^6 cells) was added to the samples and the samples were incubated at room temperature (RT) for 5 minutes. After incubation, chloroform (150 μL per 0.75 mL Trizol) was added to the samples and after 3 minutes of incubation at RT, samples were centrifuged for 12000×g for 14 minutes at 4° C. After centrifugation, the mixture separates into 3 phases and RNA remains in the aqueous phase. The aqueous phase was removed for each sample and placed in new tubes, and isopropanol (0,375 ml per 0.75 ml of Trizol) was added in each tube. Samples was incubated for 30 minutes in the refrigerator (2-8° C.). After incubation, samples were centrifugated for 12000×g for 10 minutes at 4° C., the supernatant was removed and 75% ethanol (0.75 ml per 0.75 ml of Trizol) was added to samples. Samples were centrifuged for 7500×g for 5 minutes at 4° C., and the supernatant discarded. RNA was air dried on the bench for 5-10 minutes. RNA Samples was then resuspended in water (10-50 μL). The scheme of the experimental procedures carried out to generate the RNA sequence data is represented in FIG. 1. To determine the quantity and the integrity/purity of RNA samples, check controls were first performed by the Agilent Technologies 2100 Bioanalyzer using RNA 6000 LabChip® kit (Agilent #5067-1511). The Bioanalyzer is a bio-analytical device based on a combination of microfluidic chips, voltage-induced size separation in gel filled channels and laser-induced fluorescence (LIF) detection on a miniaturized scale. The RNA Integrity Number (RIN) software algorithm allows the classification of total RNA, based on a numbering system from 1 to 10, (with 1 being the most degraded and 10 being the most intact). […] Purified samples were processed using TruSeq RNA-Seq v2 Library Preparation Kit. […]

[2] = clinical data; cited from earlier work
[3] = single treatment (ITF3756 1 μM or TNF-α 100 ng/mL), RNAseq, vs control
[4] = single treatment vs vehicle-treated control (don), monocytes 4 h, padj<0.05

Compound | ADA gene expression [1, 3] | IRF6 gene expression [1, 3] | LTBP4 gene expression [1, 3] | MMP9 gene expression ([1]; single treatment (ITF3756 1 μM or TNF-α 100 ng/mL), RNAseq, vs untreated control) | PD-L1 gene expression ([1]; single treatment (TNF-α 100 ng/mL 4 h), vs control) | Genes Down regulated (number of genes modulated) [1, 4] | Genes Up regulated (number of genes modulated) [1, 4] | tolerability in patients [2]
TNF-α [reference compound] | upregulation | no effect | downregulated by two fold | No modulation | strongly upregulated | 1688 | 1563 | –
O=C(NO)c1ccc(CN(c2cnccn2)c2cnccn2)cc1 [KA2507] | – | – | – | – | – | – | – | very well tolerated
O=C(CCCCCCNC(=O)c1cnc(N(c2ccccc2)c2ccccc2)nc1)NO [Ricolinostat] | – | – | – | – | – | – | – | very well tolerated
